Measured values: patent US9808448B2, “Pharmaceutical compounds and use of same in cancer and tauopathies” (THE REGENTS OF THE UNIVERSITY OF MICHIGAN, priority 2013, dated 2017)
Read-outs that look alike come from different tables or passages of the source.

Assays:
Assay type in all cases: cell-based
HeLa = test: Cancer activity screen (MTT cell survival), HeLa; conditions: Homo sapiens
MDA-MB-231 = test: Cancer activity screen (MTT cell survival), MDA-MB-231; conditions: Homo sapiens
MCF-7 = test: Cancer activity screen (MTT cell survival), MCF-7; conditions: Homo sapiens, MCF7
MEF (C57BL/6) = test: Cell survival, MEF; conditions: Mus musculus, read-out: IC50/μM MEF (C57BL/6)
MCF-10A = test: Cancer activity screen (MTT cell survival), MCF-10A; conditions: Homo sapiens

CCn1c(=O)/c(=C2\Sc3c(Cl)cccc3N2C)s/c1=C\c1scc[n+]1Cc1ccccc1
IC50 (HeLa): 3.93 ± 0.51 µM
IC50 (MDA-MB-231): 0.55 ± 0.05 µM
IC50 (MCF-7): 1.05 ± 0.79 µM
IC50 (MEF (C57BL/6)): > 30 µM

CCn1c(=O)/c(=C2\Sc3cc(OC(F)(F)F)ccc3N2C)s/c1=C\c1scc[n+]1Cc1ccccc1
IC50 (MDA-MB-231; second table): 0.8 ± 0.1 µM
IC50 (MCF-7; second table): 0.4 ± 0.04 µM
IC50 (MEF (C57BL/6); second table): 1.2 ± 0.1 µM

CN1/C(=c2\s/c(=C\c3cc(Cl)cc[n+]3C)n(Cc3ccccc3)c2=O)Sc2ccccc21
IC50 (MDA-MB-231): 2.83 ± 0.26 µM
IC50 (MCF-10A): 1.12 ± 0.04 µM
IC50 (MCF-7): 2.81 ± 1.01 µM

CCn1c(=O)/c(=C2\Sc3cccc(F)c3N2C)s/c1=C\c1cccc[n+]1Cc1ccc(CNC(=O)OC(C)(C)C)cc1
IC50 (HeLa): 7.6 ± 0.99 µM
IC50 (MDA-MB-231): 1.99 ± 0.33 µM
IC50 (MCF-7): 1.39 ± 0.24 µM

CCn1c(=O)/c(=C2\Sc3cc(Cl)ccc3N2C)s/c1=C\c1ccc(C#N)c[n+]1Cc1ccccc1
IC50 (MDA-MB-231; second table): 1.92 ± 0.16 µM
IC50 (MEF (C57BL/6); second table): > 50 µM

CCn1c(=O)/c(=C2\Sc3ccc(Cl)cc3N2C)s/c1=C\c1scc[n+]1Cc1ccccc1
IC50 (HeLa): 4.32 ± 0.43 µM
IC50 (MDA-MB-231): 0.62 ± 0.1 µM
IC50 (MCF-7): 0.83 ± 0.23 µM

CCn1c(=O)/c(=C2\Sc3ccc(F)cc3N2C)s/c1=C\c1cccc[n+]1CC
IC50 (MDA-MB-231; second table): 13.3 ± 0.7 µM
IC50 (MCF-7; second table): 2.4 ± 0.6 µM
IC50 (MEF (C57BL/6); second table): > 30 µM

CCn1c(=O)/c(=C2\Sc3ccccc3N2C)s/c1=C\c1cccc[n+]1Cc1ccccc1
IC50 (HeLa): 3.29 ± 0.36 µM
IC50 (MDA-MB-231): 1.02 ± 0.2 µM
IC50 (MCF-10A): 1.46 ± 0.15 µM
IC50 (MCF-7): 1.49 ± 0.22 µM
IC50 (MEF (C57BL/6)): 14.6 ± 1.17 µM

COC(=O)Cn1c(=O)/c(=C2\Sc3cc(C(F)(F)F)ccc3N2C)s/c1=C\c1nccs1
IC50 (MDA-MB-231; second table): > 30 µM
IC50 (MEF (C57BL/6); second table): > 50 µM

COC(=O)Cn1c(=O)/c(=C2\Sc3cc(C(F)(F)F)ccc3N2C)s/c1=C\c1ccccn1
IC50 (MDA-MB-231; second table): > 30 µM
IC50 (MEF (C57BL/6); second table): > 50 µM

CCn1c(=O)/c(=C2\Sc3cc(OC(F)(F)F)ccc3N2C)s/c1=C\c1ccccn1
IC50 (MDA-MB-231; second table): 4.4 ± 0.5 µM
IC50 (MEF (C57BL/6); second table): > 50 µM

CCn1c(=O)/c(=C2\Sc3ccc(OC)cc3N2C)s/c1=C\c1cccc[n+]1Cc1ccccc1
IC50 (HeLa): 3.63 ± 0.32 µM
IC50 (MDA-MB-231): 1.43 ± 0.19 µM
IC50 (MCF-10A): 1.74 ± 0.19 µM
IC50 (MCF-7): 1.6 ± 0.36 µM

CCn1c(=O)/c(=C2\Sc3cccc(Cl)c3N2C)s/c1=C\c1scc[n+]1Cc1ccccc1 [drawing 57]
IC50 (HeLa): 1.87 ± 0.23 µM
IC50 (MDA-MB-231): 0.41 ± 0.02 µM
IC50 (MCF-10A): 1.14 ± 0.15 µM
IC50 (MCF-7): 0.83 ± 0.19 µM
IC50 (MEF (C57BL/6)): 6.96 ± 0.63 µM

CCn1c(=O)/c(=C2\Sc3ccccc3N2C)s/c1=C\c1scc[n+]1CC
IC50 (MDA-MB-231; second table): 2.2 ± 0.2 µM
IC50 (MCF-7; second table): 0.8 ± 0.1 µM
IC50 (MEF (C57BL/6); second table): > 30 µM

CCN1C(=O)/C(=C2\Sc3c(F)cccc3N2C)S/C1=N\c1ccccc1
IC50 (MDA-MB-231; second table): 17.7 ± 2.85 µM
IC50 (MEF (C57BL/6); second table): > 50 µM

CN1/C(=c2\s/c(=C\c3cccc[n+]3Cc3ccccc3)n(Cc3ccccc3)c2=O)Sc2ccccc21
IC50 (HeLa): 5.89 ± 0.87 µM
IC50 (MDA-MB-231): 1.8 ± 0.34 µM
IC50 (MCF-10A): 1.34 ± 0.16 µM
IC50 (MCF-7): 2.15 ± 0.68 µM

CCn1c(=O)/c(=C2\Sc3ccccc3N2C)s/c1=C\c1scc[n+]1Cc1ccccc1
IC50 (MDA-MB-231; second table): 0.5 ± 0.1 µM
IC50 (MCF-7; second table): 0.6 ± 0.04 µM
IC50 (MEF (C57BL/6); second table): 6.8 ± 0.4 µM

CCn1c(=O)/c(=C2\Sc3cc(Cl)ccc3N2C)s/c1=C\c1scc[n+]1Cc1ccccc1
IC50 (HeLa): 0.83 ± 0.2 µM
IC50 (MDA-MB-231): 0.39 ± 0.03 µM
IC50 (MCF-7): 0.71 ± 0.22 µM
IC50 (MEF (C57BL/6)): 23.9 ± 1.28 µM

CCn1c(=O)/c(=C2\Sc3ccccc3N2C)s/c1=C\c1cccc[n+]1Cc1ccc(F)c(F)c1
IC50 (HeLa): 12.3 ± 1.21 µM
IC50 (MDA-MB-231): 4.4 ± 0.39 µM
IC50 (MCF-10A): 3.06 ± 0.38 µM
IC50 (MCF-7): 9.6 ± 2.98 µM

CCn1c(=O)/c(=C2\Sc3ccccc3N2C)s/c1=C\c1ccc(F)c[n+]1C
IC50 (HeLa): 15 ± 0.98 µM
IC50 (MDA-MB-231): 7.82 ± 0.78 µM
IC50 (MCF-10A): 5.34 ± 0.26 µM
IC50 (MCF-7): > 30 µM

CCN1C(=O)/C(=C2\Sc3cccc(F)c3N2C)S/C1=N\c1ccccc1
IC50 (MDA-MB-231; second table): > 30 µM
IC50 (MEF (C57BL/6); second table): > 50 µM
